Patent US20190275097A1, “Lycopene from Momordica Cochinchinnensis Spreng., methods and formulations” (priority 2018, published 2019)

Columns and labels:
[1] = Gac pulp consumed alone, 30-day feeding trial; cited from earlier work
caco cell = assay: Bioaccessibility studies using in-vitro digestion/caco cell techniques; type: in vitro ADME; settings: carotenoids from Gac pulp
Source text: The good absorption and transport of carotenoids after gac pulp consumption are probably due to its soft texture and to these high levels of fatty acids. […] This is in sharp contrast to other carotenoid rich fruits, which show a relatively low carotenoid bioavailability due to the lack of uptake enhancing lipids.

Row | bioavailability (bioaccessibility), in-vitro digestion/caco cell (caco cell) | Compound | bioavailability: change in the human circulation after feeding trial [1]
1 | high bioavailability | CC1=C(/C=C/C(C)=C/C=C/C(C)=C/C=C/C=C(C)/C=C/C=C(C)/C=C/C2=C(C)CCCC2(C)C)C(C)(C)CCC1 [beta-carotene] | significant increase
2 | high bioavailability | CC(C)=CCC/C(C)=C/C=C/C(C)=C/C=C/C(C)=C/C=C/C=C(C)/C=C/C=C(C)/C=C/C=C(\C)CCC=C(C)C [lycopene] | significant increase
